{
  "source": "patent US7416868B2",
  "about": "“Polyene polyketides, processes for their production and their use as a pharmaceutical” (Thallion Pharmaceuticals, Inc., priority 2003, dated 2008)",
  "key": {"[1]": {"tested_on": "C. albicans SC5314", "experiment": "Mouse model of disseminated candidiasis, survival", "type": "in vivo", "settings": "CD-1 mice infected i.v. with C. albicans SC5314; 1 or 3 mg/kg i.p. once daily for 4 days", "description": "Compound 2(a) was provided as a dry powder with an estimated purity of 95+%. Fungizone (amphotericin B desoxycholate, to be used as a comparitor), was also provided as a dry powder with an estimated purity of 95+%. The compound 2(a) and Fungizone were stored as dry powders at −80° C. until the day of administration.\nFemale mice (species Mus musculus, strain CD-1, Charles River) with body weight range of 22-24 g were used in the study. […] All animal experiments were performed at the Step-Justine Hospital (Montreal, Quebec) according to ethical guidelines of animal experimentation of the ethical committee of the hospital. During the study, dead or apparently sick animals were promptly removed and sick mice were euthanized upon removal from the cage.\nThe animals were maintained in rooms under controlled conditions of temperature (23±2° C.), humidity (45±5%), photoperiodicity (12 hrs light/12 hrs dark) and air exchange. The animals were housed in polycarbonate cages (4/single cage) equipped to provide food and water. Sterile wood shavings were used for animal bedding and the bedding was replaced every other day. […]\nThe treatment regimen was repeated once daily for a total of 4 days. […] Moribund animals were scored as non-survivors and euthanized by CO2 inhalation. […]"}, "[2]": {"tested_on": "Aspergillus species", "experiment": "Broth microdilution MIC determination, filamentous fungi", "procedure": "(§1) Test compound preparation: The test article was prepared as 100× stock solutions in DMSO, with concentrations ranging from 3.2 mg/ml to 0.0625 mg/ml (a two-fold dilution series over 10 points). The first dilution (3.2 mg/ml) was prepared by resuspending 0.5 mg of each test article in 156.25 μl of DMSO.\n(§2) Inoculum preparation: For fungal strains, the inoculum was prepared as follows. From an overnight culture in Yeast Media broth, cell density was adjusted in 0.85% saline to 0.5 McFarland. This procedure yielded a stock suspension of about 5×10^6 cells/ml. Following thorough vortexing, a working suspension was prepared by diluting the stock 1:50 in RPMI 1640, and then further diluting it 1:20 with RPMI 1640 to obtain the 2× test inoculum (about 5×10^3 cells/ml). For filamentous fungi, the inoculum was prepared as follows. From a spore suspension kept at 4° C., an appropriate dilution in 0.85% saline was made to obtain a final optical density 600 between 0.09-0.11. A working suspension was then prepared by diluting the spore suspension 50 times in RPMI to obtain the 2× test inoculum (about 1×10^5 CFU/ml).\n(§3) MIC Determination: The 100× test article solutions were diluted 50 times in RPMI 1640, MH or BHI media and dispensed in a 96 well plate, one concentration per column, 10 columns in total. The 11th column contained RPMI 1640 with 1% DMSO with cells, the 12th column contained 100 μl of RPMI 1640 alone.\n(§4) 50 μl of the final cell dilution (yeast, filamentous fungi or bacteria) of each indicator strain was added to each corresponding well of the microplate containing 50 μl of diluted drug or media alone. Assay plates were incubated at 35° C. for up to 72 hrs. MIC readings were determined at 24 and 48 hrs for the Candida and Aspergillus species, and at 48 and 72 hrs for Cryptococcus neoformans. MIC readout for each indicator was determined as the lowest concentration of test compound resulting in total absence of growth."}, "[3]": {"tested_on": "Candida species", "experiment": "Broth microdilution MIC determination (NCCLS M27-A adapted), yeasts", "procedure": "as §1, §2, §3, §4"}, "[4]": {"tested_on": "A. fumigatus - LSPQ 204305", "experiment": "Disk diffusion assay, minimum effective concentration (MEC) and zone of inhibition (ZOI)", "type": "cell-based, Aspergillus fumigatus"}, "[5]": {"tested_on": "60 different human tumor cell lines", "experiment": "NCI in vitro antiproliferative screen (SRB), GI50", "type": "cell-based", "description": "In vitro antipoliferative study of Compound 2a was performed by the National Cancer Institute (National Institutes of Health, Bethesda, Md., USA) against a panel of cancer cell lines in order to determine the concentrations needed to obtain a 50% inhibition of cell proliferation (IC50). The operation of this unique screen utilizes 60 different human tumor cell lines, representing leukemia, melanoma, and cancers of the lung, colon, brain, ovary, breast prostate and kidney. Compound 2(a) was provided as a lyophilized powder with an estimated purity of 90+%. The compound was stored at −20° C. until day of use.\nThe human tumor cell lines of the cancer-screening panel were grown in RPMI 1640 medium containing 5% fetal bovine serum and 2 mM L-glutamine. For a typical screening experiment, cells were inoculated into 96 well microtiter plates in 100 μl at plating densities ranging from 5000 to 40,000 cells/well depending on the doubling time of individual cell lines (Table 8). […]\nFollowing drug addition, the plates were incubated for an additional 48 hours at 37° C., 5% CO2, 95% air, and 100% relative humidity. […] Bound stain was subsequently solubilized with 10 mM trizma base, and the absorbance was read on an automated plate reader at a wavelength of 515 nm. […]\nThe growth inhibitory power of compound 2(a) was measured by NCl utilizing the GI50 value, rather than the classical IC50 value. […]"}, "[6]": {"tested_on": "A. flavus - ATCC 204304", "experiment": "Disk diffusion assay, minimum effective concentration (MEC) and zone of inhibition (ZOI)", "type": "cell-based, Aspergillus flavus"}},
  "data": [
    {"smiles": "CC(C=CCCC=CC=CC=CC=CC(=O)NC1=C(O)CCC1=O)C(O)C(C)C(O)C=CC=CC=CC=CC=CCC(OC1OC(C)C(O)C(O)C1O)C(C)C(=O)CC(O)CC(O)CC(O)C=CCC(O)CC(O)CC(O)CC(O)C=CCC(O)CC(O)CCCN", "note": "(stereo not shown) [Compound 2(a), 56-Amino-15,17,33,35,37,41,43,45,47,51,53-undecahydroxy-14,16,30-trimethyl-31-oxo-29-(3,4,5-trihydroxy-6-methyl-tetrahydro-pyran-2-yloxy)-hexapentaconta-2,4,6,8,12,18,20,22,24,26,38,48-dodecaenoic acid (2-hydroxy-5-oxo-cyclopent-1-enyl)-amide]", "values": [
      {"measurement": "increase of median survival time of infected mice", "setting": "[1]", "value": 4, "unit": "fold"},
      {"measurement": "MIC", "setting": "[2]; 24 h, Aspergillus flavus ATCC 204304, 24 hrs", "value": 4, "unit": "µg/mL"},
      {"measurement": "MIC", "setting": "[2]; 24 h, Aspergillus fumigatus ATCC 204305, 24 hrs", "value": 16, "unit": "µg/mL"},
      {"measurement": "MIC", "setting": "[2]; 48 h, Aspergillus flavus ATCC 204304, 48 hrs", "value": 8, "unit": "µg/mL"},
      {"measurement": "MIC", "setting": "[2]; 48 h, Aspergillus fumigatus ATCC 204305, 48 hrs", "value": 16, "unit": "µg/mL"},
      {"measurement": "MIC", "setting": "[3]; 24 h, Candida albicans ATCC 10231, 24 hrs", "value": 4, "unit": "µg/mL"},
      {"measurement": "MIC", "setting": "[3]; 24 h, Candida glabrata LSPQ 0250, 24 hrs", "value": 4, "unit": "µg/mL"},
      {"measurement": "MIC", "setting": "[3]; 24 h, Candida krusei LSPQ 0309, 24 hrs", "value": 8, "unit": "µg/mL"},
      {"measurement": "MIC", "setting": "[3]; 24 h, Candida lusitaniae ATCC 200953, 24 hrs", "value": 4, "unit": "µg/mL"},
      {"measurement": "MIC", "setting": "[3]; 48 h, Candida albicans ATCC 10231, 48 hrs", "value": 4, "unit": "µg/mL"},
      {"measurement": "MIC", "setting": "[3]; 48 h, Candida glabrata LSPQ 0250, 48 hrs", "value": 8, "unit": "µg/mL"},
      {"measurement": "MIC", "setting": "[3]; 48 h, Candida krusei LSPQ 0309, 48 hrs", "value": 8, "unit": "µg/mL"},
      {"measurement": "MIC", "setting": "[3]; 48 h, Candida lusitaniae ATCC 200953, 48 hrs", "value": 4, "unit": "µg/mL"},
      {"measurement": "ZOI (zone of inhibition of fungal growth at the MEC)", "setting": "[4]; Aspergillus fumigatus, at MEC, 24 hours of incubation", "value": 2.7, "unit": "mm"},
      {"measurement": "antifungal activity against Aspergillus fumigatus", "setting": "[4]; ZOI after 24 hours at 35° C.", "value": "active"},
      {"measurement": "GI50 level", "setting": "[5]; SN12C/renal carcinoma, HOP92/non-small cell lung carcinoma, HCC2998/colon carcinoma", "value": "nanomolar or picomolar level"},
      {"measurement": "anticancer activity against human tumor cell lines", "setting": "[5]; all cell lines assayed in the NCI screening panel", "value": "effective against all the human tumor cell lines"},
      {"measurement": "ZOI (zone of inhibition of fungal growth at the MEC)", "setting": "[6]; Aspergillus flavus, at MEC, 24 hours of incubation", "value": 2.7, "unit": "mm"},
      {"measurement": "antifungal activity against Aspergillus flavus", "setting": "[6]; ZOI after 24 hours at 35° C.", "value": "active"}
    ]}
  ]
}
